“And” between values parts separate entries of the source, which are not always exact repeats. Identical values can stand only once. Like-named read-outs stand apart in the source and are kept apart here.
Legend:
HSA = HSA (Homo sapiens, UniProt P02768); assay: BIACORE binding to HSA; conditions: Protein: HSA; for Binding Sites: number of binding sites
From the text: (§1) In the following examples, Biacore and Animal Study data were obtained with regard to some of the compounds of the present invention, namely NCP 014, 023, 023a.

HSA Fragment [1] = biological target: T1, HSA Fragment (Homo sapiens, UniProt P02768); assay: BIACORE binding to HSA Fragment; conditions: Protein: HSA Fragment; number of binding sites
T1 construct: HSA Fragment
From the text: as §1

HSA Fragment [2] = biological target: T2, HSA Fragment (Homo sapiens, UniProt P02768, form not given); assay: BIACORE binding to HSA Fragment; conditions: human, HSA fragment, Protein: HSA Fragment; read-out: KD2
T2 construct: HSA Fragment
From the text: as §1

Rat Albumin = Rat Albumin (Rattus norvegicus, UniProt P02770); assay: BIACORE binding to Rat Albumin; conditions: Protein: Rat Albumin; for Binding Sites: number of binding sites; for Kd: read-out: KD1
From the text: as §1

human serum albumin = human serum albumin (Homo sapiens, UniProt P02768); assay: Crystallographic determination of albumin binding site; conditions: serum albumin binding region observed
Sequence of human serum albumin (P02768 25-609): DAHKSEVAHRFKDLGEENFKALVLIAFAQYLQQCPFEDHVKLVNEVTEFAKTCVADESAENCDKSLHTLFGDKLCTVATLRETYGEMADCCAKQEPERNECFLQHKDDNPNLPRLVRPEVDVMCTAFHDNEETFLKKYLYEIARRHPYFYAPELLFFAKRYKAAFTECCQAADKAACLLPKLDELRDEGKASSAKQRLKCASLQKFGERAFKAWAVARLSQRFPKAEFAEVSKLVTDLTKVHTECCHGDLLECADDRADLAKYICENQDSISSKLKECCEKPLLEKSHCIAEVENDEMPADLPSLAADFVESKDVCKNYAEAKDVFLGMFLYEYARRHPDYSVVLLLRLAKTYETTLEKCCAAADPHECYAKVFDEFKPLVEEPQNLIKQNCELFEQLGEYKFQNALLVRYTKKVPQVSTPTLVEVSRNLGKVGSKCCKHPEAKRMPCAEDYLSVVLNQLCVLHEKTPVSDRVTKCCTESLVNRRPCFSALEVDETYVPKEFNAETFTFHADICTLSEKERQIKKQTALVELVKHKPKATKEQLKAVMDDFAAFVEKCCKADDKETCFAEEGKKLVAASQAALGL

Sequence of HSA (P02768 25-609): as above
Sequence of Rat Albumin (P02770 25-608): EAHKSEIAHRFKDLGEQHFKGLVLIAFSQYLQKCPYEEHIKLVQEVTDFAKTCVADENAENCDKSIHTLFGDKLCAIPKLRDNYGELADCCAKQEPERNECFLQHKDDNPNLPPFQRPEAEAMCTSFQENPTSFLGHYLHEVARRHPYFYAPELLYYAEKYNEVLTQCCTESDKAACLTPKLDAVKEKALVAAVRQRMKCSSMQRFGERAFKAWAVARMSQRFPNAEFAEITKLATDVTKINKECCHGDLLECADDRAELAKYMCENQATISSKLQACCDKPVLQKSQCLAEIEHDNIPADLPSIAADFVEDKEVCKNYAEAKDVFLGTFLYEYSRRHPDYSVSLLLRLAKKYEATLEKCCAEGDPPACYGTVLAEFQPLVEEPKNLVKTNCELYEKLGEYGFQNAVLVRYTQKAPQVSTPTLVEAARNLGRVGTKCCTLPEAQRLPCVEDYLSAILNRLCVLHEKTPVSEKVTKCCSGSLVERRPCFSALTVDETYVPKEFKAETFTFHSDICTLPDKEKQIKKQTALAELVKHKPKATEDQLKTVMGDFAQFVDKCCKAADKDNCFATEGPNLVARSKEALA
T2 sequence (P02768 whole entry, the tested form may be a part): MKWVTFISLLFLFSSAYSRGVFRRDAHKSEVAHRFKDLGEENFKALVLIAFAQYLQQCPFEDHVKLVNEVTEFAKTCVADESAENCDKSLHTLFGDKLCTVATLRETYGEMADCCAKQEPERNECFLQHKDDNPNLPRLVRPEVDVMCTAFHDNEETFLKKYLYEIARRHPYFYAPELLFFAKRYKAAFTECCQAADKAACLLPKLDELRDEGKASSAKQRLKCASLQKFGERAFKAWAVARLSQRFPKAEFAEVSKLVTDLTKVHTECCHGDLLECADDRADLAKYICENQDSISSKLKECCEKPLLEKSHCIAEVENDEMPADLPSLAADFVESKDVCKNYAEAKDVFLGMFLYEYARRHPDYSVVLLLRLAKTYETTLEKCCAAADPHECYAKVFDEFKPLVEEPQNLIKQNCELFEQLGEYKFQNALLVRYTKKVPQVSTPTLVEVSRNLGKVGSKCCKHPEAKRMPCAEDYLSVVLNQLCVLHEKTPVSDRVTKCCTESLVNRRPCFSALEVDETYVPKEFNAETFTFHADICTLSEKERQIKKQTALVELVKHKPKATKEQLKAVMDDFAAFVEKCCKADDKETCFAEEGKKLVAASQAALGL
T1 sequence (P02768 whole entry, the tested form may be a part): as above

Row | Structure (SMILES) | Binding Sites (HSA) | Kd (HSA; read-out: KD1) | Kd (HSA; human, HSA (human serum albumin), read-out: KD2) | Binding Sites (HSA Fragment [1]) | Kd (HSA Fragment [2]) | Binding Sites (Rat Albumin) | Kd (Rat Albumin) | albumin binding site (location) (human serum albumin) | Kd (HSA; read-out: KD2)
1 | CCCCCCCCC(CC(C)=O)c1c(O)c2ccccc2oc1=O (stereo not shown) [NCP 014] | 2 and 1 | 0.7 µM and 0.8 µM and 4.6 µM and 6.5 µM | 130 µM | 2 and 1 | 97 µM | 2 | 4.6 µM | bind at the IB binding site, and in addition in the IIA binding site, but at a location different than the major site wherein sodium warfarin binds to albumin | –
2 | CC(=O)CC(Cc1ccccc1)c1c(O)c2ccccc2oc1=O (stereo not shown) [NCP 023] | 2 and 1 | – | – | – | 220 µM | – | 85 µM | bind at the IB site of serum albumin unique from the IB endogenous long-chain fatty acid site | 112 µM and 160 µM
3 | CC(=O)CC(Cc1ccc(Cl)cc1)c1c(O)c2ccccc2oc1=O (stereo not shown) [NCP 023a] | 1 and 2 | – | – | – | 50 µM | 2 | 11.8 µM | bind at the IB site of serum albumin unique from the IB endogenous long-chain fatty acid site | 40 µM
